# Target: recombinant protein Wee-1 (Homo sapiens, UniProt P30291)
# Assay: Inhibition of enzymatic activity of recombinant protein Wee-1 (HTRF)
# Assay type: biochemical
# Procedure: The inhibitory effect of the compounds on the enzyme activity of recombinant protein Wee-1 was determined by HTRF. The procedures are as follows:
# After DMSO or serially diluted compounds (up to 200 nM, 1:5 serially diluted) and recombinant proteins were co-incubated in a kinase buffer at 37° C. for 30 min Fluorescein-PolyGAT and ATP were added, and then the reaction was started by the addition of a substrate. After incubation at room temperature for 90 min, an antibody and a detection solution were added, and after further incubation at room temperature for 60 min, fluorescence values were detected (excitation wavelength: 340 nm, emission wavelengths: 495 and 520 nm). The 520 nm/495 nm fluorescence intensity ratio value was calculated, and compared with that of the DMSO group, and then the inhibition percentages and IC50 values of the compounds were calculated.
# recombinant protein Wee-1, sequence (P30291 whole entry): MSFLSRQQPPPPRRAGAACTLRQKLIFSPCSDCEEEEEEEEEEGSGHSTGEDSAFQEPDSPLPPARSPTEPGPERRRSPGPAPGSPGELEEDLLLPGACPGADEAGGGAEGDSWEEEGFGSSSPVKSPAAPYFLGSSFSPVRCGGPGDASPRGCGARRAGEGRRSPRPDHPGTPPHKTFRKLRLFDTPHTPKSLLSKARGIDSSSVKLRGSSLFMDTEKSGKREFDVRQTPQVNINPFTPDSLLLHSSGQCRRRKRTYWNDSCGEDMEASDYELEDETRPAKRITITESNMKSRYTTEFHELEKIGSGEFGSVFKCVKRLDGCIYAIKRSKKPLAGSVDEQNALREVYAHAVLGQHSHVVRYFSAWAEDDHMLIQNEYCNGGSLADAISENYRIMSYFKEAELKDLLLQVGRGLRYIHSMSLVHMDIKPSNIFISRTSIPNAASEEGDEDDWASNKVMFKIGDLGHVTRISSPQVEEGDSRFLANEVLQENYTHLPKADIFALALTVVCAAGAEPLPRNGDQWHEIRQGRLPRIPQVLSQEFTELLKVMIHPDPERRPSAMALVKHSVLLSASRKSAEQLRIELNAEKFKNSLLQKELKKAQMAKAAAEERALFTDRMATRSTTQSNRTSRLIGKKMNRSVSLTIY
row,IC50 [nM],SMILES
1,≤ 10,CN1Cc2cc(Nc3ncc(C#N)c(Nc4cccc(N=S(C)(C)=O)n4)n3)cc3c2C(CCC=C3)C1 (stereo not shown) [Compound 86]
2,≤ 10,[2H]c1ccc(Nc2nc(Nc3cc4c5c(c3)CN(C)CC5CCC4)ncc2C#N)nc1N=S(C)(C)=O (stereo not shown) [Compound 135]
3,≤ 10,CN1Cc2cc(Nc3ncc(C#N)c(Nc4cncc(N=S(C)(C)=O)c4)n3)cc3c2C(CCC3)C1 (stereo not shown) [Compound 103]
4,≤ 10,CN1Cc2cc(Nc3ncc(C#N)c(Nc4cccc(N=S(C)(C)=O)n4)n3)cc3c2C(CCCCO3)C1 (stereo not shown) [Compound 82]
5,≤ 10,CN1Cc2cc(Nc3ncc(C#N)c(Nc4ccnc(N=S(C)(C)=O)n4)n3)cc3c2C(CCC3)C1 (stereo not shown) [Compound 106]
6,≤ 10,CN1Cc2cc(Nc3ncc(C#N)c(Nc4cc(F)cc(N=S(C)(C)=O)n4)n3)cc3c2C(CCC3)C1 (stereo not shown) [Compound 111]
7,≤ 10,CN1Cc2cc(Nc3ncc(C#N)c(Nc4cccc(N=S(C)(C)=O)n4)n3)cc3c2C(C1)C(O)CC3 (stereo not shown) [Compound 293]
8,≤ 10,CN1Cc2cc(Nc3ncc(C#N)c(Nc4cccc(N=S(C)(C)=O)n4)n3)cc3c2C(C1)C(N)CC3 (stereo not shown) [Compound 294]
9,≤ 10,CN1Cc2cc(Nc3ncc(C#N)c(Nc4nccc(N=S(C)(C)=O)n4)n3)cc3c2C(CCC3)C1 (stereo not shown) [Compound 107]
10,≤ 10,C=Cc1cc(N=S(C)(C)=O)nc(Nc2nc(Nc3cc4c5c(c3)CC(N(C)C)CCC5CCC4)ncc2C#N)c1 (stereo not shown) [Compound 124]
11,≤ 10,CN1Cc2cc(Nc3ncc(C#N)c(N4CCc5c(N=S(C)(C)=O)cccc54)n3)cc3c2C(CCC3)C1 (stereo not shown) [Compound 114]
12,≤ 10,CN1Cc2cc(Nc3ncc(C#N)c(Nc4cccc(N=S(C)(C)=O)n4)n3)cc3c2C(CC(N)C3)C1 (stereo not shown) [Compound 292]
13,≤ 10,CN1Cc2cc(Nc3ncc(C#N)c(Nc4cccc(N=S(C)(C)=O)n4)n3)cc3c2C(CCC3)C1(C)C (stereo not shown) [Compound 133]
14,≤ 10,CN1Cc2cc(Nc3ncc(C#N)c(Nc4cccc(N=S(C)(C)=O)n4)n3)cc3c2C(C1)CN(C)C3 [Compound 126]
15,≤ 10,CN1Cc2cc(Nc3ncc(C(F)(F)F)c(Nc4cccc(N=S(C)(C)=O)n4)n3)cc3c2C(CCC3)C1 (stereo not shown) [Compound 94]
16,≤ 10,CN1Cc2cc(Nc3ncc(C#N)c(-n4cnc5c(N=S(C)(C)=O)cccc54)n3)cc3c2C(CCC3)C1 (stereo not shown) [Compound 117]
17,≤ 10,CN1Cc2cc(Nc3ncc(C#N)c(Nc4cccc(N=S(C)(C)=O)n4)n3)cc3c2C(CCCCS3)C1 (stereo not shown) [Compound 83]

row,IC50 [nM],SMILES
1,≤ 10,CN(C)C1Cc2cc(Nc3ncc(C#N)c(Nc4cccc(N=S(C)(C)=O)n4)n3)cc3c2C1CCC3 (stereo not shown) [Compound 90]
2,≤ 10,CN1Cc2cc(Nc3ncc(C4CC4)c(Nc4cccc(N=S(C)(C)=O)n4)n3)cc3c2C(CCC3)C1 (stereo not shown) [Compound 95]
3,≤ 10,CN1Cc2cc(Nc3ncc(C(N)=O)c(Nc4cccc(N=S(C)(C)=O)n4)n3)cc3c2C(CCC3)C1 (stereo not shown) [Compound 98]
4,≤ 10,CN1Cc2cc(Nc3ncc(C#N)c(Nc4cccc(N=S(C)(C)=O)n4)n3)cc3c2C(CCN3C)C1 (stereo not shown) [Compound 131]
5,≤ 10,CN1Cc2cc(Nc3ncc(C#N)c(Nc4cccc(N=S(C)(C)=O)n4)n3)cc3c2C(C1)SC3 (stereo not shown) [Compound 73]
6,≤ 10,CN1Cc2cc(Nc3ncc(C#N)c(Nc4cccc(N=S(C)(C)=O)n4)n3)cc3c2C(C1)SCCC3 (stereo not shown) [Compound 81]
7,≤ 10,CN(C)C1Cc2cc(Nc3ncc(C#N)c(Nc4cccc(N=S(C)(C)=O)n4)n3)cc3c2C(CCC3)C1 (stereo not shown) [Compound 89]
8,≤ 10,CN1Cc2cc(Nc3ncc(C#N)c(Nc4cccc(N=S(C)(C)=O)n4)n3)cc3c2C(CCN3)C1 (stereo not shown) [Compound 132]
9,≤ 10,CN1Cc2cc(Nc3ncc(C#N)c(Nc4cccc(N=S(C)(C)=O)n4)n3)cc3c2C(CCC3O)C1 (stereo not shown) [Compound 289]
10,≤ 10,CN1Cc2cc(Nc3ncc(C#N)c(Nc4cccc(N=S(C)(C)=O)n4)n3)cc3c2C(CCCO3)C1 (stereo not shown) [Compound 74]
11,≤ 10,CN1Cc2cc(Nc3ncc(C#N)c(Nc4cccc(N=S(C)(C)=O)n4)n3)cc3c2C2(CCC3)CC12 (stereo not shown) [Compound 125]
12,≤ 10,CN1Cc2cc(Nc3ncc(C#N)c(Nc4cccc(N=S5(=O)CCCC5)n4)n3)cc3c2C(CCC3)C1 (stereo not shown) [Compound 93]
13,≤ 10,CN1Cc2cc(Nc3ncc(C#N)c(Nc4cccc(N=S5(=O)CCC5)n4)n3)cc3c2C(CCC3)C1 (stereo not shown) [Compound 92]
14,≤ 10,[2H]C([2H])([2H])S(=O)(=Nc1cccc(Nc2nc(Nc3cc4c5c(c3)CN(C)CC5CCC4)ncc2C#N)n1)C([2H])([2H])[2H] (stereo not shown) [Compound 136]
15,≤ 10,CN1Cc2cc(Nc3ncc(C#N)c(Nc4cccc(N=S(C)(C)=O)n4)n3)cc3c2C(CC=CC3)C1 (stereo not shown) [Compound 85]
16,≤ 10,CN1Cc2cc(Nc3ncc(C#N)c(Nc4cccc(N=S(C)(C)=O)n4)n3)cc3c2C(C=CCC3)C1 (stereo not shown) [Compound 84]
17,≤ 10,C=Cc1cc(N=S(C)(C)=O)nc(Nc2nc(Nc3cc4c5c(c3)CN(C)CC5CCC4)ncc2C#N)c1 (stereo not shown) [Compound 122]

# Second part, the compound before the results:
row,SMILES,IC50 [nM]
1,CN1Cc2cc(Nc3ncc(C#N)c(Nc4cccc(N=S(C)(C)=O)n4)n3)cc3c2C(CCC3(F)F)C1 (stereo not shown) [Compound 34],≤ 10
2,Cc1c(Nc2ncc(C#N)c(Nc3cccc(N=S(C)(C)=O)n3)n2)cc2c3c1CCCC3CN(C)C2 (stereo not shown) [Compound 46],≤ 10
3,CN1Cc2cc(Nc3ncc(C#N)c(Nc4cccc(N=S(C)(C)=O)n4)n3)cc3c2C(CSC3)C1 (stereo not shown) [Compound 67],≤ 10
4,CN1Cc2cc(Nc3ncc(C#N)c(Nc4cccc(N=S(C)(C)=O)n4)n3)cc3c2C(CCS3)C1 (stereo not shown) [Compound 65],≤ 10
5,CCN1Cc2cc(Nc3ncc(C#N)c(Nc4cccc(N=S(C)(C)=O)n4)n3)cc3c2C(CCC3)C1 (stereo not shown) [Compound 7],≤ 10
6,CN1Cc2cc(Nc3ncc(C#N)c(Nc4cccc(N=S(C)(C)=O)n4)n3)cc3c2[C@H](CCCC3)C1 [Compound 57],≤ 10
7,CN1Cc2cc(Nc3ncc(C#N)c(Nc4cccc(N=S(C)(C)=O)n4)n3)cc3c2C(C1)CC(C)(C)C3 (stereo not shown) [Compound 27],≤ 10
8,CN1Cc2cc(Nc3ncc(C#N)c(Nc4cccc(N=S(C)(C)=O)n4)n3)cc3c2C(CCC3)C12CC2 (stereo not shown) [Compound 23],≤ 10
9,CN1Cc2cc(Nc3ncc(C#N)c(Nc4cccc(N=S(C)(C)=O)n4)n3)cc3c2C(CCCC3)C1 (stereo not shown) [Compound 56],10 to 50
10,CN1Cc2cc(Nc3ncc(C#N)c(Nc4cccc(N=S(C)(C)=O)n4)n3)cc3c2C(CC2CC32)C1 (stereo not shown) [Compound 37],≤ 10
11,CS(C)(=O)=Nc1cccc(Nc2nc(Nc3cc4c5c(c3)CN(C3CC3)CC5CCC4)ncc2C#N)n1 (stereo not shown) [Compound 13],≤ 10
12,CN1Cc2cc(Nc3ncc(C#N)c(Nc4cccc(N=S(C)(C)=O)n4)n3)cc3c2C(C)(CC3)C1 (stereo not shown) [Compound 53],10 to 50
13,CS(C)(=O)=Nc1cccc(Nc2nc(Nc3cc4c5c(c3)CN(C3CC3)C[C@@H]5CCC4)ncc2C#N)n1 [Compound 15],≤ 10
14,CN1Cc2cc(Nc3ncc(C#N)c(Nc4cccc(N=S(C)(C)=O)n4)n3)cc3c2[C@](C)(CCCC3)C1 [Compound 60],≤ 10
15,CN1Cc2cc(Nc3ncc(C#N)c(Nc4cccc(N=S(C)(C)=O)n4)n3)cc3c2[C@H](CC3)C1 [Compound 51],10 to 50
16,CS(C)(=O)=Nc1cccc(Nc2nc(Nc3cc4c5c(c3)CN(CC3CC3)CC5CCC4)ncc2C#N)n1 (stereo not shown) [Compound 18],≤ 10
17,CN1Cc2cc(Nc3ncc(C#N)c(Nc4cccc(N=S(C)(C)=O)n4)n3)cc3c2C(C=CC3)C1 (stereo not shown) [Compound 36],≤ 10
18,CN1Cc2cc(Nc3ncc(C#N)c(Nc4cccc(N=S(C)(C)=O)n4)n3)cc3c2C(C1)CC(F)(F)C3 (stereo not shown) [Compound 28],≤ 10
19,CN1Cc2cc(Nc3ncc(C#N)c(Nc4cccc(N=S(C)(C)=O)n4)n3)cc3c2C(C)(CCCCC3)C1 (stereo not shown) [Compound 63],≤ 10
20,CN1Cc2cc(Nc3ncc(C#N)c(Nc4cccc(N=S(C)(C)=O)n4)n3)cc3c2[C@@](C)(CC3)C1 [Compound 55],10 to 50
21,CN1Cc2cc(Nc3ncc(C#N)c(Nc4cccc(N=S(C)(C)=O)n4)n3)cc3c2C(C1)C1CC1C3 (stereo not shown) [Compound 38],≤ 10
22,CN1Cc2cc(Nc3ncc(C#N)c(Nc4cccc(N=S(C)(C)=O)n4)n3)cc3c2C(C1)C(F)(F)CC3 (stereo not shown) [Compound 31],≤ 10
23,CN1Cc2cc(Nc3ncc(C#N)c(Nc4cccc(N=S(C)(C)=O)n4)n3)cc3c2C(C1)OC3 (stereo not shown) [Compound 72],≤ 10
24,CC(C)N1Cc2cc(Nc3ncc(C#N)c(Nc4cccc(N=S(C)(C)=O)n4)n3)cc3c2[C@H](CCC3)C1 [Compound 11],≤ 10
25,CC(C)N1Cc2cc(Nc3ncc(C#N)c(Nc4cccc(N=S(C)(C)=O)n4)n3)cc3c2C(CCC3)C1 (stereo not shown) [Compound 10],≤ 10
26,CN1Cc2cc(Nc3ncc(C#N)c(Nc4cccc(N=S(C)(C)=O)n4)n3)cc3c2C(CS3)C1 (stereo not shown) [Compound 71],≤ 10
27,CN(C)CCN1Cc2cc(Nc3ncc(C#N)c(Nc4cccc(N=S(C)(C)=O)n4)n3)cc3c2C(CCC3)C1 (stereo not shown) [Compound 17],≤ 10
28,CC(C)N1Cc2cc(Nc3ncc(C#N)c(Nc4cccc(N=S(C)(C)=O)n4)n3)cc3c2[C@@H](CCC3)C1 [Compound 12],≤ 10
29,CN1Cc2cc(Nc3ncc(C#N)c(Nc4cccc(N=S(C)(C)=O)n4)n3)cc3c2C(CCC3(C)C)C1 (stereo not shown) [Compound 33],≤ 10
30,CN1CC2CCCc3cc(Nc4ncc(C#N)c(Nc5cccc(N=S(C)(C)=O)n5)n4)cc(c32)C1(C)C (stereo not shown) [Compound 20],≤ 10

# From patent US12655127B2, “Fused ring compound as Wee-1 inhibitor” (WIGEN BIOMEDICINE TECHNOLOGY (SHANGHAI) CO., LTD., priority 2021, dated 2026)
